Laboratory results taken from article PMC8548882, “The Trp-rich Antimicrobial Amphiphiles With Intramolecular Aromatic Interactions for the Treatment of Bacterial Infection” (Frontiers in Microbiology, 2021).
In brackets after ≈: the same amount, converted by molar mass. Read-outs that look alike come from different tables or passages of the source. Ends that are not written are not given here.

What was measured:
MRSA 43300 = assay type: cell-based, Staphylococcus aureus ATCC 43300; conditions: microtiter dilution, 1×10^5CFU/ml, 18–24h at 37°C, visible turbidity
Description: (§1) The tested strains were kindly provided by the laboratory of Veterinary Microbiology and Immunology, the College of Veterinary Medicine, Northeast Agricultural University (gram-negative bacteria, Salmonella enterica serovar typhimurium C77-31, Salmonella typhimurium ATCC 14028, Escherichia coli ATCC 25922, Pseudomonas aeruginosa ATCC 27853 and gram-positive bacteria, Staphylococcus aureus ATCC 29213, Staphylococcus aureus ATCC 43300, Staphylococcus epidermidis ATCC 12228, Staphylococcus aureus ATCC 25923).
(§2) The famous microtiter dilution, National Committee for Clinical Laboratory Standards, was adopted to measure the antimicrobial ability of the engineering peptides ([Chou et al., 2016]). In brief, the 50μl with serial dilution was incubated with the same volume bacteria (1×10^5CFU/ml in midi-logarithmic phase) in a 96-well plate 18–24h at 37°C. The positive control was the bacteria treated with culture medium and the negative control was merely culture medium. The MICs (minimum inhibitory concentrations) were defined as the lowest concentration of peptides that prevented the production of visible turbidity ([Tossi et al., 2000]).

[1] = system: hRBC, IPEC-J2, HEK 293T, RAW264.7
Protocol: Besides, the therapeutic index of peptide in the mammalian eukaryotic cell (RAW 264.7, HEK 293T, and IPEC J2) was also calculated to study the biocompatibility of peptides.

S.aureus 29213 = assay type: cell-based, Staphylococcus aureus ATCC 29213
Description: as §1, §2

P.aeruginosa 27853 = assay type: cell-based, Pseudomonas aeruginosa ATCC 27853
Description: as §1, §2

S.aureus 25923 = assay type: cell-based, Staphylococcus aureus ATCC 25923
Description: as §1, §2

[2] = system: panel of gram-negative and gram-positive bacteria; conditions: over the eight strains of Table 2
Protocol: as §2

IPEC-J2 cells = assay type: cell-based, porcine; conditions: for Therapeutic index (TI): IPEC-J2, ratio of IC50 to GM
Protocol: (§3) The MTT (3-[4,5 dimethylthiozol-2-yl]-2,5-diphenylterazoliumbromide) dye was selected to analyze the cytotoxicity of peptides against the murine macrophage cell RAW 264.7 (National Collection of Authenticated Cell Cultures, Shanghai, China), human embryonic kidneys (HK293T), and the porcine intestinal epithelial cells (IPEC-J2) as in our previously study ([Li et al., 2020]). In short, the cells (10^4 cells/well) were seeded into 96-well plates and were cultivated overnight. Then the peptides with different final concentration (2μM, 4μM, 8μM, 16μM, 32μM, 64μM, and 128μM) were introduced into the plate and challenged with cells for 24h. After overnight incubation, the 50μl MTT (0.5mg/ml) was added into the cell cultures for 4h. Then the plate was centrifuged to discard the supernatants and obtain the formazan crystals. The DMSO (dimethyl sulfoxide) was employed as a solvent to dissolve the formazan crystals on the bottom of the plate and the optical density was read at 492nm with a microplate reader.

[3] = system: Pseudomonas aeruginosa ATCC 27853; assay: Subcutaneous abscess model; conditions: 5mg/kg
HEK 293T cells = assay type: cell-based, human; conditions: ratio of IC50 to GM
Protocol: as §3

E. coli 25922 = assay type: cell-based, Escherichia coli ATCC 25922
Description: as §1

RAW 264.7 cells = assay type: cell-based, murine; conditions: RAW264.7; ratio of IC50 to GM
Protocol: as §3

S.epidermidis 12228 = assay type: cell-based, Staphylococcus epidermidis ATCC 12228
Description: as §1

[4] = system: human red blood cells (hRBCs); assay: Hemolytic activity; assay type: cell-based; conditions: for HC5 (MHC), lowest concentration that caused 5% hemolysis: hRBC in PBS pH 7.2, 1h at 37°C, absorbance 570nm, vs 0.1% Triton X-100, highest test concentration 128μM; for Therapeutic index (TI): hRBC, ratio of MHC to GM
Description: The hemolytic activity of peptides was reflected by the releasing amount of hemoglobin from erythrocytes lysis induced by peptides ([Dong et al., 2014a]). The informed consent was obtained from the volunteers (3 healthy 25-year-old male volunteers) before the experiment. In brief, the human red blood cells (hRBCs), donated by volunteer, were collected, washed, and resuspended in PBS at pH 7.2. The peptides were serially diluted in PBS at different concentrations in a 96-well cell cultures plate and incubated with 50μl hRBCs for 1h at 37°C. The 0.1% Trition X-100 was selected as the treatment of positive control and the negative control was the hRBCs treated with PBS. After 1h incubation, the supernatant, obtained by centrifuging the plate 1,000g for 5min, was transferred to a brand-new plate for absorbance detection at 570nm. The releasing amount of hemoglobin was converted to the percent hemolysis against to 0.1% Triton X-100 treatment. The lowest concentration caused 5% hemolysis of hRBCs and was defined as the lowest hemolytic concentration of antimicrobial peptide.

S.typhimurium 7731 = assay type: cell-based, Salmonella enterica serovar typhimurium C77-31
Description: as §1

S.typhimurium 14028 = assay type: cell-based, Salmonella typhimurium ATCC 14028
Description: as §1

[5] = microtiter dilution, 1×10^5CFU/ml, 18–24h at 37°C, visible turbidity

Compound | MIC (MRSA 43300) [µM] | GMMIC, geometric mean of the MICs [2] [µM] | GMTI, geometric mean of TI of various cell lines [1] | MIC (S.aureus 29213; 29213) [µM] | Therapeutic index (TI) (HEK 293T cells) | MIC (P.aeruginosa 27853; 27853) [µM] | MIC (E. coli 25922) [µM] | Therapeutic index (TI) (RAW 264.7 cells) | MIC (S.aureus 25923; 25923) [µM] | Therapeutic index (TI) (IPEC-J2 cells) | MIC (S.epidermidis 12228) [µM] | HC5 (MHC), lowest concentration that caused 5% hemolysis [4] [µM] | Therapeutic index (TI) [4] | MIC (S.typhimurium 7731) [µM] | MIC (S.typhimurium 14028) [µM] | further results
CC[C@H](C)[C@H](NC(=O)CN)C(=O)NCC(=O)N[C@@H](C)C(=O)N[C@H](C(=O)N[C@@H](CC(C)C)C(=O)N[C@@H](CCCCN)C(=O)N[C@H](C(=O)N[C@@H](CC(C)C)C(=O)N[C@H](C(=O)N[C@H](C(=O)NCC(=O)N[C@@H](CC(C)C)C(=O)N1CCC[C@H]1C(=O)N[C@@H](C)C(=O)N[C@@H](CC(C)C)C(=O)N[C@H](C(=O)N[C@@H](CO)C(=O)N[C@@H](Cc1c[nH]c2ccccc12)C(=O)N[C@H](C(=O)N[C@@H](CCCCN)C(=O)N[C@@H](CCCNC(=N)N)C(=O)N[C@@H](CCCCN)C(=O)N[C@@H](CCCNC(=N)N)C(=O)N[C@@H](CCC(N)=O)C(=O)N[C@@H](CCC(N)=O)C(N)=O)[C@@H](C)CC)[C@@H](C)CC)[C@@H](C)O)[C@@H](C)O)C(C)C)C(C)C [Melittin, reference compound] | 4 (≈ 11.4 µg/mL) | 1.68 |  |  |  |  |  |  |  |  |  |  |  |  |  | GMTI, geometric mean of TI of various cell lines ([1]; hRBC, IPEC-J2, HEK 293T, RAW264.7): 1.71; MIC (S.aureus 29213; [5]): 4 µM (≈ 11.4 µg/mL); MIC (P.aeruginosa 27853; [5]): 2 µM (≈ 5.69 µg/mL); MIC (S.aureus 25923; [5]): 2 µM (≈ 5.69 µg/mL); cell viability (IPEC-J2 cells; IPEC J2, MTT, 24h, 32μM): below 5%; IC50 (IPEC-J2 cells; IPEC-J2, MTT, 24h, tested 2–128μM): 3.34 µM
O=C(O)c1cn(C2CC2)c2cc(N3CCNCC3)c(F)cc2c1=O [ciprofloxacin, reference compound] |  |  |  |  |  |  |  |  |  |  |  |  |  |  |  | IL-1β in serum ([3]; Day 3, ELISA, saline 95.99±4.31): 72.18 ± 3.54 pg/mL; IL-1α in serum ([3]; Day 3, ELISA, saline 99.95±4.71): 80.08 ± 4.04 pg/mL; TNF-α in serum ([3]; Day 3, ELISA, saline 1020.654±51.08): 773.35 ± 40.55 pg/mL; IL-2 in serum ([3]; Day 3, ELISA, saline 1492.65±48.11): 1250.826 ± 43.60 pg/mL; histological examination of abscess lesion, dermal tissue structures ([3]; HE staining, Day 3): relative integrity
VKKLVKKLVKKAVKKA-NH2 [VL2] | >64 | 117.38 | >25.74 | >64 | 71.65 | 64 | >64 | 64.03 | >64 | 87.76 | >64 | >128 | >1.09 | >64 | >64 | 
VKKLVKKLVKKAVKKL-NH2 [VL4] |  |  | >104.47 | 16 |  | 8 | 16 |  | 16 |  | 32 |  |  | 16 | 32 | 
VKKLVKKLVKKLVKKA-NH2 [VL3] |  |  | >122.44 | 16 |  | 8 | 16 |  | 32 |  | 32 |  |  | 32 | 32 | 
VKKLVKKLVKKLVKKL-NH2 [VL5] | 8 | 4.76 | >357.80 | 8 | 1574.26 | 2 | 8 | 404.20 | 8 | 957.83 | 4 | >128 | > 26.89 | 2 | 4 | TI (hRBC) fold smaller than VW5 [4]: about 2.8 fold
VKKWVKKAVKKWVKKA-NH2 [VW1] | >64 | 76.11 | >35.28 | 64 | 86.82 | 32 | 64 | 87.91 | >64 | 120.77 | 64 | >128 | > 1.68 | >64 | 64 | 
